How the values were obtained:
[1] = background statement; accelerated by heat, UV or low pH; cited from earlier work
[2] = Colour-change stability test of 2% kojic acid in an aqueous cosmetic base with sodium metabisulphite and/or propyl gallate; format: physicochemical; details: over 42 days, room temperature, 2% kojic acid aqueous base
Description: A test was conducted to measure the effect of sodium metabisulphite and propyl gallate on the stability of kojic acid in aqueous cosmetic or pharmaceutical compositions. In this regard kojic acid is known to change colour from a slight yellow to very dark yellow as it degrades, and so colour change was used as the indicator of stability vs. degradation. All samples contained 2% kojic acid in an aqueous cosmetic base. [table] Each sample was photographed and optically assessed against a 20-stage yellow colour spectrum, where 1 was a very pale straw yellow, and 20 was a dark yellow. Photographs were taken on day 1, day 7 and day 42. In between photographs, the samples were stored together at normal room temperature.

[3] = Earlier experiments on stability (discolouration) of kojic acid solutions with stabilisers; format: physicochemical; details: two month period
Excerpt: One useful, if obvious, solution to the problem would be to add a preservative such as sodium metabisulphite. Sodium metabisulphite is in a class of preservatives that release sulphur dioxide. […] However this option is not enough for two reasons. Firstly, two months is not sufficient shelf life for a cosmetic or pharmaceutical composition. Secondly, a preferable format for a skin lightening composition would also include one or more other lightening ingredients, such as lactic acid, niacinamide and ascorbic acid. The net effect of these ingredients may lower the pH, and accelerate the degradation of kojic acid. This has been shown in experiments to overcome the stabilising effect of sodium metabisulphite during a two month period.
It was then hypothesised that reducing agents or antioxidants may help by preventing free radical formation. Various antioxidants were tested without noticeable effect.
Researchers expected the combination to deliver better results that propyl gallate, but worse results than sodium metabisulphite alone. Instead the kojic acid solution remained completely clear for more than two months. The result is certainly not additive and therefore must be due to some previously unknown synergy between sodium metabisulphite and propyl gallate.

| effect of the additive on stability of kojic acid (in words) [2] | Compound | stability of kojic acid in solution (in words) [1] | stabilisation / discolouration of kojic acid solution (in words) [3] |
| --- | --- | --- | --- |
| – | O=c1cc(CO)occ1O [kojic acid] | degrades within weeks in solution | – |
| worsened stability slightly | CCCOC(=O)c1cc(O)c(O)c(O)c1 [propyl gallate] | – | – |
| improved stability slightly | O=S([O-])S(=O)(=O)[O-].[Na+].[Na+] [sodium metabisulphite] | – | keeping discolouration to a low level for up to two months |
